In patent publication US12565475B2, “Small molecule compound inhibiting signal transmission path of TLR7 and TLR9 and use thereof” (AJOU UNIVERSITY INDUSTRY-ACADEMIC COOPERATION FOUNDATION, priority 2019, dated 2026):

Target: T1, TLR4 (Mus musculus, UniProt Q9QUK6)
T1 construct: endogenous in cells; host or cells: RAW 264.7
T1 sequence (Q9QUK6 26-835): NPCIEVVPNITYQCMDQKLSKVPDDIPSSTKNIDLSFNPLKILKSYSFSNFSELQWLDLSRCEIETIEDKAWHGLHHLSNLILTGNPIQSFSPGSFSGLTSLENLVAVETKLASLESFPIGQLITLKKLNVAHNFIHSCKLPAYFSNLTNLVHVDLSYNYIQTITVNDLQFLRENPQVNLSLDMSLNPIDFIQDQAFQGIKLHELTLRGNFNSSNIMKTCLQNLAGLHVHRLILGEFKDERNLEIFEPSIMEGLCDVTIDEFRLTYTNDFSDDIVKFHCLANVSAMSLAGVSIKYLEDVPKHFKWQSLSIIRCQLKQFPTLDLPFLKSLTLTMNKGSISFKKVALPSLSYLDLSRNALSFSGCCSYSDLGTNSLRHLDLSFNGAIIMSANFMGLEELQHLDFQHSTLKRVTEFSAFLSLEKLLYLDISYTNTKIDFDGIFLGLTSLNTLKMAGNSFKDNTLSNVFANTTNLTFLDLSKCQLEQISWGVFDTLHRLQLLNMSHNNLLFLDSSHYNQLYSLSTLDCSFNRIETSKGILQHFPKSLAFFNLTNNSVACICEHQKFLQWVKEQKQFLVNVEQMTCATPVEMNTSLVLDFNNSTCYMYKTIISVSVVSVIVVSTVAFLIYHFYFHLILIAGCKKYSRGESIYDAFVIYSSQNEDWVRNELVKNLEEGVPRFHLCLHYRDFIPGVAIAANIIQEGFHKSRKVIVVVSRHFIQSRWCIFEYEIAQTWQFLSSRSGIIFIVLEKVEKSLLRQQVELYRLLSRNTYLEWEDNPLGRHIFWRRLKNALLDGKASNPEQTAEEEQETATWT
T1 sequence (Q9JHF9 19-160 partner): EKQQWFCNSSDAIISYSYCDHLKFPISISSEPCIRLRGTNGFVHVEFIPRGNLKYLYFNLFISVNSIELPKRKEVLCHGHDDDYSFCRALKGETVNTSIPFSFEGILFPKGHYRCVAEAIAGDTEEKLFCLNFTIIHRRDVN
Test: TLR4-mediated TNF-α secretion (LPS), ELISA
Format: cell-based, murine
Settings: RAW 264.7, 10 or 20 μM
Method: Agonists specific to TLR1/TLR2 (Pam3CSK4), TLR2/TLR6 (FSL-1), TLR3 (Poly I:C), TLR7 (imiquimod), and TLR8 (TL8-506) were purchased from InvivoGen Ltd. (Hong-Kong, China), and a TLR4-specific agonist (LPS from E. coli O111:B4) was purchased from Sigma-Aldrich, Inc. For TLR9-specific stimulation, class C CpG-ODN (ODN2395, 5′-TCGTCGTTTTCGGCGCGCGCCG-3′) having full phosphorothioate backbone modification was synthesized (Bioneer, Inc., Daejeon, Korea). All TLR agonists were dissolved in deionized water and applied to a culture media for TLR activation. The cells were treated with test compounds or a control medium for 1 hour, and then stimulated with a TLR agonist for 4 hours, or 24 hours in the case of poly(I:C), and the cytokine secretion was monitored.
RAW 264.7 or differentiated THP-1 cell lines were seeded onto a 96-well culture plate at a density of 2×10^4 cells/well. The cells were treated with test compounds for 1 hour followed by the stimulation with TLR agonists for 4 hours. The supernatant was transferred to pre-coated assay plates, and the secretion levels of mouse and human TNF-α were measured by respective ELISA kits (Invitrogen, Carlsbad, CA, USA). […] Absorbance was measured by a microplate reader spectrophotometer (Molecular Devices, Inc., San Jose, CA, USA), and data was interpolated from a standard curve using SoftMax Pro 5.3 software (Molecular Devices, Inc.). […]

effect on TLR4-mediated cytokine (TNF-α) production: no effect
SMILES: COc1ccc(CNc2ncc(-c3ccc4c(c3)OCO4)n2C)c(OC)c1 [TIC10-7, 5-(2H-1,3-benzodioxol-5-yl)-N-[(2,4-dimethoxyphenyl)methyl]-1-methyl-1H-imidazol-2-amine]
